Assay results taken from ChEMBL document CHEMBL1201862, “PubChem BioAssay data set” (2004).
Activity calls are given as the source filed them.

Experiments:
BJ [1] = assay: BJ-TERT fibroblast viability loss – cell-based, RAS-independent, luminescence, dose response (AID 1933); assay type: functional; settings: Homo sapiens
BJ [2] = assay: cells; assay type: functional, cell-based; settings: Homo sapiens
BJ [3] = assay: BJ-TERT-LT-ST fibroblast viability loss – cell-based, RAS-independent, luminescence, dose response (AID 1935); assay type: functional; settings: Homo sapiens;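 further: BJ fibroblasts immortalized with TERT plus LT and ST oncogenes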
[4] = DRD fibroblast viability loss – cell-based, non-viral oncogenic, luminescence, dose response (AID 1934); assay type: functional; settings: Homo sapiens
CAAX prenyl protease 2 = CAAX prenyl protease 2 (Saccharomyces cerevisiae S288c, UniProt Q03530); assay type: biochemical
[5] = toxicity toward cultured mammalian cells – cell-based, plate reader, cherry-pick samples, cytotoxicity control, dose response (AID 504397); assay type: functional
[6] = microbe, parasite or virus in culture; assay type: functional; settings: Mycobacterium tuberculosis
[7] = Luminescence Cell-Based Dose Retest to Confirm Inhibitors of Cancer Stem Cells. [Related pubchem assays (depositor defined):AID2717, AID2721]; assay type: functional; settings: Homo sapiens
Bcl-2-related protein A1 = target: T1, Bcl-2-related protein A1 (Mus musculus, UniProt Q07440); assay type: functional;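 further: confirmatory dose–response counterscreen on Bfl-1, used to check hits from a UBC13 polyubiquitin inhibitor campaign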
T1 sequence (Q07440 whole entry): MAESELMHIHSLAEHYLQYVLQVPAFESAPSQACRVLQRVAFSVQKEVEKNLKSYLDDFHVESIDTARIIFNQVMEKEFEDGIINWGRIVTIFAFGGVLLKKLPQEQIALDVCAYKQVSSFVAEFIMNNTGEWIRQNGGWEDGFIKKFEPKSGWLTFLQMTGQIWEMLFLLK

[8] = target: T2, Ubiquitin-conjugating enzyme E2 N (Homo sapiens, UniProt P61088); assay type: functional
T2 sequence (P61088 whole entry): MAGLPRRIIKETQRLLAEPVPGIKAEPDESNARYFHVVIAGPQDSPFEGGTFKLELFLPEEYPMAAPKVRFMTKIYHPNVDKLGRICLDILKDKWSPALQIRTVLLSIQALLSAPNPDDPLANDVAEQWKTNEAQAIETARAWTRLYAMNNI

[9] = target: T2, Ubiquitin-conjugating enzyme E2 N; assay type: functional; remark: listed apart in the source
INS1 = assay: INS-1E survival protection against cytokine death – cell-based, luminescence, retest, dose response (AID 449756); assay type: functional; settings: Rattus norvegicus;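 further: cell death triggered by IL-1 beta plus TNF-alpha plus IFN-gamma mixture; protective hits raise ATP signal compared with cytokine alone wells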
[10] = target: Peroxisome proliferator-activated receptor gamma/Nuclear receptor coactivator 1 (Homo sapiens, UniProt P37231); assay: (§1) TR-FRET dose response biochemical High Throughput Screening assay for agonists of the steroid receptor coactivator 1 (SRC-1) recruitment by the peroxisome proliferator-activated receptor gamma (PPAR gamma): non-selective agonists. [Related pubchem assays (depositor defined):AID1300, AID1808, AID504735, AID631]; assay type: protein assay
[11] = target: Peroxisome proliferator-activated receptor gamma/Nuclear receptor coactivator 3 (Homo sapiens, UniProt P37231); assay: as §1, with “3 (SRC-3)” for “1 (SRC-1)”, “assays: 1301 (Confirmation screen.), 1048 (Primary screen.)]” for “assays (depositor defined):AID1300, AID1808, AID504735, AID631]”; assay type: functional
[12] = target: Peroxisome proliferator-activated receptor gamma/Nuclear receptor coactivator 2 (Homo sapiens, UniProt P37231); assay: TR-FRET dose response biochemical High Throughput Screening assay for agonists of the steroid receptor coactivator 2 (SRC-2) recruitment by the peroxisome proliferator-activated receptor gamma (PPAR gamma): non-selective agonists. [Related pubchem assays: 1297, 1032 ]; assay type: functional
Cytochrome P450 1A2 = target: T3, Cytochrome P450 1A2 (Homo sapiens, UniProt P05177);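 further: PubChem cytochrome P450 panel assay, CYP1A2 panel member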
T3 sequence (P05177 whole entry): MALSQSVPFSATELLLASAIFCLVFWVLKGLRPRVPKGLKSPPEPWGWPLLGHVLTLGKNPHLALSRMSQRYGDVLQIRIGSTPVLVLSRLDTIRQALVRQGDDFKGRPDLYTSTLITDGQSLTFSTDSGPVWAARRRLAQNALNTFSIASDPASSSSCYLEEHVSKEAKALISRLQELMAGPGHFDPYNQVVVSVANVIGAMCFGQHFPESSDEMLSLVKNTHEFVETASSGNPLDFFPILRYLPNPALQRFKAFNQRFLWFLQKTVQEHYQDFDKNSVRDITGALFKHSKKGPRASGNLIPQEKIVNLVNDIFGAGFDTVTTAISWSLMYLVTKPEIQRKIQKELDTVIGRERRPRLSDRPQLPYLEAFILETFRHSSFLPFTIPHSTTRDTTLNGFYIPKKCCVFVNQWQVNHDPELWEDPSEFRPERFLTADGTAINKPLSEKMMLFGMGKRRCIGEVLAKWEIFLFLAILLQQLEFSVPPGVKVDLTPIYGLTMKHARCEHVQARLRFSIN

Cytochrome P450 2C9 = Cytochrome P450 2C9 (Homo sapiens, UniProt P11712)
SUMO-activating enzyme [13] = target: T4, SUMO-activating enzyme (Homo sapiens, UniProt Q9UBT2); assay: blockers of UBC9-mediated SUMO conjugation – biochemical, AlphaScreen, SUMOylation inhibitor project, confirmation (AID 2018); assay type: functional
SUMO-activating enzyme [14] = target: T4, SUMO-activating enzyme; assay: blockers of SAE1/SAE2–UBC9 SUMO transfer – biochemical, HTRF, uHTS, primary screen (AID 2006); assay type: protein-complex assay

T4 sequence (Q9UBE0 whole entry): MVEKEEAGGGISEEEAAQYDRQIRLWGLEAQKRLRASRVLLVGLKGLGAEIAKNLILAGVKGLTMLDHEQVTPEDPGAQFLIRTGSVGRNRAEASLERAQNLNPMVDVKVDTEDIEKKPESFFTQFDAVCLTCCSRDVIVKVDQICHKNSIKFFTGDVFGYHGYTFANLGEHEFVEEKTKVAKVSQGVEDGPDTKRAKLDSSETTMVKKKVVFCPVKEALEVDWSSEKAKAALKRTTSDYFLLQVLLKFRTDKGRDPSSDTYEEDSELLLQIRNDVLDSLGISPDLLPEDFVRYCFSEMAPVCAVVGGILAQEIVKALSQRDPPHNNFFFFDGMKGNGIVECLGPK
T4 sequence (Q9UBT2 whole entry): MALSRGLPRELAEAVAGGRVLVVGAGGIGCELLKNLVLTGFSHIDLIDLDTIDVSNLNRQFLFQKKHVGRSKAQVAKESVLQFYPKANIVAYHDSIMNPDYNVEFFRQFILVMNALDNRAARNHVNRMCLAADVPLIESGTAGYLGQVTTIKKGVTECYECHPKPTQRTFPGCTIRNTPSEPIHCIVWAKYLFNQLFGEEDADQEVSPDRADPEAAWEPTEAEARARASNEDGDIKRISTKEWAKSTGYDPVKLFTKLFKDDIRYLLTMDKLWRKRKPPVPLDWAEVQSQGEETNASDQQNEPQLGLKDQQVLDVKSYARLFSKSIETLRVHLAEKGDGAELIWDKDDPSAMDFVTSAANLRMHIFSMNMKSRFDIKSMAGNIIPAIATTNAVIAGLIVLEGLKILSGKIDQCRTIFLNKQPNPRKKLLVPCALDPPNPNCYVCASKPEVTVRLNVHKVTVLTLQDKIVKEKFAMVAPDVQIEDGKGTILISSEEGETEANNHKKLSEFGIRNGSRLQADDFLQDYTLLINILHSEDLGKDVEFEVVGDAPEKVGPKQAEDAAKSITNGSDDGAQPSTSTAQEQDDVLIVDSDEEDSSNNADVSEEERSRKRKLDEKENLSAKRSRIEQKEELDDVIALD
Sequence of CAAX prenyl protease 2 (Q03530 whole entry): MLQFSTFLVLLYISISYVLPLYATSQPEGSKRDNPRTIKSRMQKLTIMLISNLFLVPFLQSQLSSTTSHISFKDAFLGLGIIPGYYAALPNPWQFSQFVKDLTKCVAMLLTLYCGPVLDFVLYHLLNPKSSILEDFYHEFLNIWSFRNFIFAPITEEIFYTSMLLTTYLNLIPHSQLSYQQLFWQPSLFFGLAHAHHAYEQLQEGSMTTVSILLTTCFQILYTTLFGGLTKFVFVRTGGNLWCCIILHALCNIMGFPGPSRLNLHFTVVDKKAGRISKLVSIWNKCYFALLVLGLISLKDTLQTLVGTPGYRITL
Sequence of Peroxisome proliferator-activated receptor gamma/Nuclear receptor coactivator 2 (P37231 whole entry): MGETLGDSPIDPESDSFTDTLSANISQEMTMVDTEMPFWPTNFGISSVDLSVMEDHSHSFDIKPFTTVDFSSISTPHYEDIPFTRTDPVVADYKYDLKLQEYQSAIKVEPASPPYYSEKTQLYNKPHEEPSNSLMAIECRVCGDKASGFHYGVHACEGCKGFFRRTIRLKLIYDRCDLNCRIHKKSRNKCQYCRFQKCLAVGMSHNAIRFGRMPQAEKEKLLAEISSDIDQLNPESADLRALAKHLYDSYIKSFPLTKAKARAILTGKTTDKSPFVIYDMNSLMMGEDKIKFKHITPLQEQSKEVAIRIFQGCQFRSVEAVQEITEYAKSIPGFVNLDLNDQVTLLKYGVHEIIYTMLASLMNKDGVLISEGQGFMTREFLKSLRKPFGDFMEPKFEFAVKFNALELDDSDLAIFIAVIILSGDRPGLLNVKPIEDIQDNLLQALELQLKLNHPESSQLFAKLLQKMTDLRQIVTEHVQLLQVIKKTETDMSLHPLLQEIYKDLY
Sequence of Peroxisome proliferator-activated receptor gamma/Nuclear receptor coactivator 2 (Q15596 whole entry, further chain): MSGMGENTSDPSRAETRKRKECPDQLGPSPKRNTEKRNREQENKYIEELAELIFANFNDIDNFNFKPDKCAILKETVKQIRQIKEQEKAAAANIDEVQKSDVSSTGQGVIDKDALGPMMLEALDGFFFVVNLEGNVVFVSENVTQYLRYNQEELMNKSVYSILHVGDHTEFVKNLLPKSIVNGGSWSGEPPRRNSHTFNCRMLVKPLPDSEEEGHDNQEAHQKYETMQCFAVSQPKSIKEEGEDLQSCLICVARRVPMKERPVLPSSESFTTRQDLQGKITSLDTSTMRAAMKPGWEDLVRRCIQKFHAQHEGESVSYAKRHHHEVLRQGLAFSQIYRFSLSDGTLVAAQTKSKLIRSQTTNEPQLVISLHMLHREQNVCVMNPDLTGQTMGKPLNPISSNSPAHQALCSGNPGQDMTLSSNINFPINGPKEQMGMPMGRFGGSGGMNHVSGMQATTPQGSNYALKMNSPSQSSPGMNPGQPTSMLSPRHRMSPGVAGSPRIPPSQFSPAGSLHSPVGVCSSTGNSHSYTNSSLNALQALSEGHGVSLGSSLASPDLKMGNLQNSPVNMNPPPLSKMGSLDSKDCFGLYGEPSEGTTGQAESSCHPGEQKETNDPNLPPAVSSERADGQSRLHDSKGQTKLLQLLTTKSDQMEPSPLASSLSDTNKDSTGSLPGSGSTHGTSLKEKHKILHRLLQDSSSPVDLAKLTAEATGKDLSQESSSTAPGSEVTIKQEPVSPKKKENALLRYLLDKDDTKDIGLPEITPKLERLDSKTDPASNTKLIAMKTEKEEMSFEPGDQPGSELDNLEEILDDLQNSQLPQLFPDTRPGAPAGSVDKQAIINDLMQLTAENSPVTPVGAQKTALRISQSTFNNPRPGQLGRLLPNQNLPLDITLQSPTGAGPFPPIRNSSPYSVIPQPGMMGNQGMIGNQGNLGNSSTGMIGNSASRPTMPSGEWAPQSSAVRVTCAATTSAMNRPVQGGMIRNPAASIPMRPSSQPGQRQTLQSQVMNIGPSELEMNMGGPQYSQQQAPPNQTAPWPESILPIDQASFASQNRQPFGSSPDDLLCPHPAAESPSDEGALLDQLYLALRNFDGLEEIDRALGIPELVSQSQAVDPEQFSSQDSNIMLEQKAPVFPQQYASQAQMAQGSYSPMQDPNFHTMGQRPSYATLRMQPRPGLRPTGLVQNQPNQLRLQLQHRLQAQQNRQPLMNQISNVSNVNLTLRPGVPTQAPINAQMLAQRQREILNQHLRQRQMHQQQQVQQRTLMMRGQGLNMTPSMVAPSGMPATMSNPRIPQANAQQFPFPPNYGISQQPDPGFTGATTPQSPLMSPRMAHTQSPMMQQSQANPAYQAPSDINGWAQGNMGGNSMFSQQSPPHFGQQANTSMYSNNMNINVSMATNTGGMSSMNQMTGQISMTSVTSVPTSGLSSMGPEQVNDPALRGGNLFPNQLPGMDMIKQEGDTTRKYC
Sequence of Cytochrome P450 2C9 (P11712 whole entry): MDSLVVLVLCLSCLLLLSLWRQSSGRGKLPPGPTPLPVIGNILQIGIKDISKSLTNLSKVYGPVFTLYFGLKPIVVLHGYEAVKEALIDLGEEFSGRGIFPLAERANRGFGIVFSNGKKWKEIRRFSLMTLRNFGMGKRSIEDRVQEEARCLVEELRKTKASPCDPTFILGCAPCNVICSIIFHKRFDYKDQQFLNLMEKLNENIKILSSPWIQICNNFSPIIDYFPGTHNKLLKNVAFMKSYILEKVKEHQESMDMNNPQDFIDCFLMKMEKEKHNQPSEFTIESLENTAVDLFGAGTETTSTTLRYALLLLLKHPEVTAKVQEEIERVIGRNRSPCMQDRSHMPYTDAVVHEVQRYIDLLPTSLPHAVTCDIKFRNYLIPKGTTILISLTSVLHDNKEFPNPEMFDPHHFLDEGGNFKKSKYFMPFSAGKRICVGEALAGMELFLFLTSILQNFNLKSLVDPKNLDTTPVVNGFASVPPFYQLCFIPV

Cc1cccc(OCCCN2C(=O)C(=O)c3cc(C)ccc32)c1
EC50 (BJ [1]): 5.08 µM (active)
EC50 (BJ [2]): > 150 µM (not active)
EC50 (BJ [3]): 11.1 µM (inconclusive)
EC50 [4]: 25.9 µM (active)
AC50 (CAAX prenyl protease 2): 2.77 µM (active)
AC50 [5]: 42.4 µM (active)

COc1ccc2cc1Oc1ccc(cc1)C[C@H]1c3c(cc(OC)c4c3Oc3c(ccc5c3[C@H](C2)N(C)CC5)O4)CCN1C
CC50 [6]: 6.25 µM (active)
AC50 [7]: 3.56 µM (active)
IC50 (Bcl-2-related protein A1): > 20 µM (inactive)
IC50 [8]: 16 µM (active)
IC50 [9]: 12.2 µM (active)
AC50 (INS1): 8.02 µM (active)

Cn1c(=O)cc(SCC(=O)NCCN2CCN(c3ccccc3F)CC2)c2cc(Cl)ccc21
EC50 [10]: 33.2 µM (inactive)
EC50 [11]: > 79.4 µM (not active)
EC50 [12]: 7.9 µM (active)
AC50 (Cytochrome P450 1A2): 39.8 µM (inconclusive)
AC50 (Cytochrome P450 2C9): inconclusive

COc1cccc2c(SCC(=O)N/N=C/c3ccc(O)cc3O)cc(C)nc12
IC50 (SUMO-activating enzyme [13]): 3.17 µM (active)
IC50 (SUMO-activating enzyme [14]): 28.6 µM (active)
